# Test results as given in patent US12269800B2, “Delivery of therapeutic alkaloid compounds” (priority 2021, dated 2025).
# Several values for one entry are separate records, joined by “and”; a condition that tells them apart may be missing. Equal entries are not always repeated. Where two headings read alike, the source gives them in different places.
# What was measured:
# [1] = Hydrolysis Assay of Example A2, Condition 1 (SGF with pepsin, pH 1.5, 37° C.); format: physicochemical; details: for Condition 1 Conversion (%), second value of a/b: value after the slash
# [2] = 5 µM
# [3] = 5 µM; remark: listed apart in the source
# [4] = SGF with pepsin pH 1.5, 37° C., 0.5 mM, time 1 min
# [5] = SGF with pepsin pH 1.5, 37° C., 0.5 mM, time 5 min
# [6] = SGF with pepsin pH 1.5, 37° C., 0.5 mM, time 30 min
# [7] = SGF with pepsin pH 1.5, 37° C., 0.5 mM, time 1 h
# [8] = SGF with pepsin pH 1.5, 37° C., 0.5 mM, time 4 h
# [9] = SGF with pepsin pH 1.5, 37° C., 0.5 mM, time 24 h
# [10] = SGF with pepsin pH 1.5, 37° C., time 1 h
# [11] = SGF with pepsin pH 1.5, 37° C., time 4 h
# [12] = SGF with pepsin pH 1.5, 37° C., time 24 h
# [13] = SGF with pepsin pH 1.5, 37° C., time 1 min
# [14] = SGF with pepsin pH 1.5, 37° C., time 5 min
# [15] = SGF with pepsin pH 1.5, 37° C., time 30 min
Compound,"Condition 1 Conversion (%) [1, 4]","Condition 1 Conversion (%) [1, 5]","Condition 1 Conversion (%) [1, 6]","Condition 1 Conversion (%) [1, 7]","Condition 1 Conversion (%) [1, 8]","Condition 1 Conversion (%) [1, 9]",further results
COc1ccc([C@]23CCN(C)[C@H]2CC2(CC3)OCCS2)cc1OC (stereo partly shown) [Compound 69],0%,0%,0%,0%,0%,0%,–
COc1ccc([C@@]23CCN(C)[C@@H]2CC2(CC3)OCCS2)cc1OC (stereo partly shown) [Compound 070],0%,0%,0%,0%,0%,0%,–
"COc1ccc([C@]23CCN(C)[C@H]2CC2(CC3)OC[C@@H](c3ccccc3)O2)cc1OC (stereo partly drawn) [Compound 081, (3′aS,4R,7′aS)-3′a-(3,4-dimethoxyphenyl)-1′-methyl-4-phenyl-spiro[1,3-dioxolane-2,6′-2,3,4,5,7,7a-hexahydroindole]]",0%,0%,0%,0%,0%,0%,–
"COc1ccc([C@]23CCN(C)[C@H]2CC2(CC3)OC[C@H](c3cccnc3)O2)cc1OC (stereo partly drawn) [Compound 109, (3′aS,7′aS)-3′a-(3,4-dimethoxyphenyl)-1′-methyl-4-(3-pyridyl)spiro[1,3-dioxolane-2,6′-2,3,4,5,7,7a-hexahydroindole]]",0%,0%,0%,0%,0%,0%,–
"COc1ccc([C@]23CCN(C)[C@H]2CC2(CC3)OCC(c3ccncc3)O2)cc1OC (stereo partly drawn) [Compound 110, (3′aS,7′aS)-3′a-(3,4-dimethoxyphenyl)-1′-methyl-4-(4-pyridyl)spiro[1,3-dioxolane-2,6′-2,3,4,5,7,7a-hexahydroindole]]",0%,0%,0%,0%,0%,0%,–
"COc1cccc(C2COC3(CC[C@@]4(c5ccc(OC)c(OC)c5)CCN(C)[C@H]4C3)O2)c1 (stereo partly drawn) [Compound 111, (3′aS,7′aS)-3′a-(3,4-dimethoxyphenyl)-4-(3-methoxyphenyl)-1′-methyl-spiro[1,3-dioxolane-2,6′-2,3,4,5,7,7a-hexahydroindole]]",0%,0%,0%,0%,0%,0%,–
"COc1ccc([C@]23CCN(C)[C@H]2CC2(CC3)OCC(c3cccc([N+](=O)[O-])c3)O2)cc1OC (stereo partly drawn) [Compound 113, (3′aS,7′aS)-3′a-(3,4-dimethoxyphenyl)-1′-methyl-4-(3-nitrophenyl)spiro[1,3-dioxolane-2,6′-2,3,4,5,7,7a-hexahydroindole]]",0%,0%,0%,0%,0%,0%,–
"COc1ccc([C@@]23CCC(=NNCCc4ccccc4)C[C@@H]2N(C)CC3)cc1OC [Compound 159, N-[[(3aS,7aS)-3a-(3,4-dimethoxyphenyl)-1-methyl-2,3,4,5,7,7a-hexahydroindol-6-ylidene]amino]-2-phenyl-ethanamine]",–,–,–,–,–,–,Condition 1 Conversion (%) ([1]; pH 1.5): 77% and 91% and 100% (2×)
"COc1ccc([C@@]23CCC(=NNC(N)=O)C[C@@H]2N(C)CC3)cc1OC [Compound 197, [[(3aS,7aS)-3a-(3,4-dimethoxyphenyl)-1-methyl-2,3,4,5,7,7a-hexahydroindol-6-ylidene]amino]urea]",–,–,–,–,–,–,Condition 1 Conversion (%) ([1]; pH 1.5): 0%
"COc1ccc([C@@]23CCC(=NOCC(=O)OC(C)(C)C)C[C@@H]2N(C)CC3)cc1OC [Compound 202, tert-butyl 2-[[(3aS,7aS)-3a-(3,4-dimethoxyphenyl)-1-methyl-2,3,4,5,7,7a-hexahydroindol-6-ylidene]amino]oxyacetate]",–,–,–,1.12%,3.01%,64.4%,"Condition 1 Conversion (%), second value of a/b [1, 10]: 0%; Condition 1 Conversion (%), second value of a/b [1, 11]: 6.42%; Condition 1 Conversion (%), second value of a/b [1, 12]: 6.42%"
"COc1ccc([C@@]23CC/C(=N\OC(C)(C)OC)C[C@@H]2N(C)CC3)cc1OC [Compound 204, (E,3aS,7aS)-3a-(3,4-dimethoxyphenyl)-N-(1-methoxy-1-methyl-ethoxy)-1-methyl-2,3,4,5,7,7a-hexahydroindol-6-imine]",100%,100%,0%,0%,0%,0%,"Condition 1 Conversion (%), second value of a/b [1, 13]: 0%; Condition 1 Conversion (%), second value of a/b [1, 14]: 0%; Condition 1 Conversion (%), second value of a/b [1, 15]: 100%; Condition 1 Conversion (%), second value of a/b [1, 10]: 100%; Condition 1 Conversion (%), second value of a/b [1, 11]: 100%; Condition 1 Conversion (%), second value of a/b [1, 12]: 100%"
"COc1ccc([C@@]23CCC(=NOC4CCCCO4)C[C@@H]2N(C)CC3)cc1OC (stereo partly drawn) [Compound 206, (3aS,7aS)-3a-(3,4-dimethoxyphenyl)-1-methyl-N-tetrahydropyran-2-yloxy-2,3,4,5,7,7a-hexahydroindol-6-imine]",–,–,1.41%,7.83%,0%,0%,"Condition 1 Conversion (%), second value of a/b [1, 15]: 0%; Condition 1 Conversion (%), second value of a/b [1, 10]: 2.57%; Condition 1 Conversion (%), second value of a/b [1, 11]: 77.75%; Condition 1 Conversion (%), second value of a/b [1, 12]: 100%"
"COc1ccc([C@]23CCN(C)[C@H]2CC2(CC3)OCC(C)O2)cc1OC (stereo partly drawn) [Compound 211, (3′aS,7′aS)-3′a-(3,4-dimethoxyphenyl)-1′,4-dimethyl-spiro[1,3-dioxolane-2,6′-2,3,4,5,7,7a-hexahydroindole]]",0%,0%,0%,0%,0%,0%,–
"C=CC1OC2(CC[C@@]3(c4ccc(OC)c(OC)c4)CCN(C)[C@H]3C2)OC1C=C (stereo partly drawn) [Compound 213, (3′aS,7′aS)-3′a-(3,4-dimethoxyphenyl)-1′-methyl-4,5-divinyl-spiro[1,3-dioxolane-2,6′-2,3,4,5,7,7a-hexahydroindole]]",0%,0%,0%,0%,0%,0%,–
COc1ccc([C@]23CCN(C)[C@H]2CC2(CC3)OCC(COCc3ccccc3)O2)cc1OC (stereo partly shown) [Compound 215],0%,0%,6.1%,15.2%,25.8%,46.8%,–
"COc1ccc([C@@]23CC/C(=N/OC(C)(C)OC)C[C@@H]2N(C)CC3)cc1OC [Compound 219, (Z,3aS,7aS)-3a-(3,4-dimethoxyphenyl)-N-(1-methoxy-1-methyl-ethoxy)-1-methyl-2,3,4,5,7,7a-hexahydroindol-6-imine]",100%,100%,0%,0%,0%,0%,"Condition 1 Conversion (%), second value of a/b [1, 13]: 0%; Condition 1 Conversion (%), second value of a/b [1, 14]: 0%; Condition 1 Conversion (%), second value of a/b [1, 15]: 100%; Condition 1 Conversion (%), second value of a/b [1, 10]: 100%; Condition 1 Conversion (%), second value of a/b [1, 11]: 100%; Condition 1 Conversion (%), second value of a/b [1, 12]: 100%"
"COc1ccc([C@@]23CCC(OC(=O)c4c(C)cc(C)cc4C)=C[C@@H]2N(C)CC3)cc1OC [Compound 356, (3aS,7aS)-3a-(3,4-dimethoxyphenyl)-1-methyl-2,3,3a,4,5,7a-hexahydro-1H-indol-6-yl 2,4,6-trimethylbenzoate]",–,–,–,–,–,–,Rat Plasma Prodrug (%) ([2]; 0 min): 100.0%; Rat Plasma Prodrug (%) ([2]; 10 min): >99%; Rat Plasma Prodrug (%) ([2]; 30 min): >99%; Rat Plasma Prodrug (%) ([2]; 60 min): >99%; Rat Plasma Prodrug (%) ([2]; 120 min): >99%; Rat Plasma Prodrug (%) ([2]; 240 min): 95.8%; Human Plasma Prodrug (%) ([3]; 0 min): 100.0%; Human Plasma Prodrug (%) ([3]; 10 min): >99%; Human Plasma Prodrug (%) ([3]; 30 min): >99%; Human Plasma Prodrug (%) ([3]; 60 min): >99%; Human Plasma Prodrug (%) ([3]; 120 min): >99%; Human Plasma Prodrug (%) ([3]; 240 min): >99%
"CCCCCCCC(=O)OC1=C[C@@H]2N(C)CC[C@]2(c2ccc(OC)c(OC)c2)CC1 [Compound 395, (3aS,7aS)-3a-(3,4-dimethoxyphenyl)-1-methyl-2,3,3a,4,5,7a-hexahydro-1H-indol-6-yl octanoate]",–,–,–,–,–,–,Rat Plasma Prodrug (%) ([2]; 0 min): 100.0%; Rat Plasma Prodrug (%) ([2]; 10 min): 0.3%; Rat Plasma Prodrug (%) ([2]; 30 min): 0.1%; Rat Plasma Prodrug (%) ([2]; 60 min): 0.1%; Rat Plasma Prodrug (%) ([2]; 120 min): 0.1%; Rat Plasma Prodrug (%) ([2]; 240 min): 0.1%; Human Plasma Prodrug (%) ([3]; 0 min): 100.0%; Human Plasma Prodrug (%) ([3]; 10 min): 13.9%; Human Plasma Prodrug (%) ([3]; 30 min): 3.5%; Human Plasma Prodrug (%) ([3]; 60 min): 1.1%; Human Plasma Prodrug (%) ([3]; 120 min): 0.3%; Human Plasma Prodrug (%) ([3]; 240 min): 0.1%
"N-[[(3aS,7aS)-3a-(3,4-dimethoxyphenyl)-1-methyl-3,4,7,7a-tetrahydro-2H-indol-6-yl]3,4-dimethoxybenzoate [Compound 302]",0%,0%,0%,0%,0%,0%,–
